Assays:
[1] = target: recombinant human cannabinoid 1 receptor (CB1) (Homo sapiens, UniProt P21554); experiment: [35S]GTPγS binding assay, antagonism against WIN 55,212-2; type: biochemical; settings: compound at 1 μM against WIN 55,212-2 dose response; CHO-CB1 membranes; 100% = effect of internal standard CB1-antagonist
Description: The percentage of catalepsy is determined according to the following formula: % Catalepsy=arithmetic mean/6×100 Antagonistic Assay: Materials and Methods. Membrane Preparation:
Chinese hamster ovary (CHO) cells stably expressing recombinant human cannabinoid 1 receptor (CB1) were cultured in nutrient mixture Ham's F 12 supplemented with 10% heat-inactivated fetal bovine serum, 2 mM L-glutamine, 50 U/ml penicillin, 50 U/ml streptomycin and 0.5 mg/ml geneticin. In order to obtain cells, culture flasks were washed twice with phosphate buffered saline and scraped. Then, cells were collected by centrifugation (200×g, 10 min) and stored dry at −80° C. Cells were homogenized in ice-cold 20 mM HEPES, 10 mM EDTA (pH 7.5) and centrifuged at 40,000×g for 15 min at 4° C. The pellet was resuspended in 20 mM HEPES, 0.1 mM EDTA (pH 7.5) and centrifuged for 15 min at 4° C. The final pellet was resuspended in 20 mM HEPES, 0.1 mM EDTA (pH 7.5), and divided in aliquots and stored at −80° C. until use.
[^35S]GTPγS Binding Assay:
The reaction was performed in 96-well plates. Membranes (15 µg protein/well) were incubated for 60 min at 30° C. in buffer (50 mM HEPES, 100 mM KCl, 5 mM MgCl2, 1 mM EDTA, 0.1% wt/vol bovine serum albumin, 5 μM GDP, saponin (10 μg/ml), 0.5 nM [^35S]GTPγS, pH 7.4) with compound at 1 μM final concentration in either the absence or presence of dose response curve of agonist WIN 55,212-2 between 3 nM and 3 μM. The incubation was terminated by rapid filtration through Millipore Multiscreen glass fiber FB, and rinsed two-times with ice-cold assay buffer. Filter plates were dried and 30 μl of scintillation liquid was added. Radioactivity was determined using Wallac Microbeta Trilux. Each experiment was performed at least in duplicate. A WIN 55,212-2 dose-response was systematically performed.
The average of basal [^35S]GTPγS binding was subtracted from all binding data. In order to compare the antagonism results from one screening campaign to another one, the difference between the maximal agonist effect of WIN 55,212-2 alone, and the maximal antagonism effect due to WIN 55,212-2 with an internal standard CB1-antagonist was defined as 100%.

CB1 receptor = target: T1, CB1 receptor (Homo sapiens, UniProt P21554); experiment: In-vitro determination of affinity to CB1/CB2 receptors (radioligand [3H]-CP55940); settings: transfected human receptor, binding
T1 construct: purchased Receptor Biology, Inc
T1 sequence (P21554 whole entry): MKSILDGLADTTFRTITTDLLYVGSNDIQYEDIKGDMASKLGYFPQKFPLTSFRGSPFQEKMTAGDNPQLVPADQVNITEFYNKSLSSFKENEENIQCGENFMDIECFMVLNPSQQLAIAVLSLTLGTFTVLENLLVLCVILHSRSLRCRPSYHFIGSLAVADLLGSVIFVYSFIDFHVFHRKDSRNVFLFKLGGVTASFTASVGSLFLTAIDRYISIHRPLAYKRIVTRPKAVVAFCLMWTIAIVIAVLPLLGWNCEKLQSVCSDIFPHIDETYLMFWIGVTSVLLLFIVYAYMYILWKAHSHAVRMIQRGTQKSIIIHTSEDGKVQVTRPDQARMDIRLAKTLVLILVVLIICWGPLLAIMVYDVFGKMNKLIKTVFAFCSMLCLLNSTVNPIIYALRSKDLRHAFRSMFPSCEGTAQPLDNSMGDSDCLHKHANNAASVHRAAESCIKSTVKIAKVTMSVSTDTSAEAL
Description: Pharmacological Data: Pharmacological Methods I. In-Vitro Determination of Affinity to CB1/CB2-Receptors
The in-vitro determination of the affinity of the inventive quaternary ammonium salts of substituted pyrazoline compounds to CB1/CB2-Rezeptors is carried out as described in the publication of Ruth A. Ross, Heather C. Brockie et al., “Agonist-inverse agonist characterization at CB1 and CB2 cannabinoid receptors of L-759633, L759656 and AM630”, British Journal of Pharmacology, 126, 665-672, (1999), whereby the transfected human CB1 and CB2 receptors of Receptor Biology, Inc. are used. The radioligand used for both receptors is [^3H]-CP55940. The respective parts of the description are hereby incorporated by reference and forms part of the present disclosure.
The affinity of the inventive substituted pyrazoline compounds to CB1/CB2 receptors was determined as described above.

recombinant human cannabinoid 1 receptor (CB1), sequence (P21554 whole entry): as above

CC1Cc2ccccc2N1NC(=O)C1=NN(c2ccc(Cl)cc2Cl)[C@@H](c2ccc(Cl)cc2)[C@H]1C (relative stereo) [Example 5, cis-5-(4-chlorophenyl)-1-(2,4-dichlorophenyl)-4-methyl-N-(2-methylindolin-1-yl)-4,5-dihydro-1H-pyrazole-3-carboxamide]
Antagonism (%) [1]: 16 ± 15% | IC50 (CB1 receptor): 0.128 µM

C[C@@H]1C(C(=O)NN2CCc3ccccc32)=NN(c2ccc(Cl)cc2Cl)[C@H]1c1ccc(Br)cc1 (relative stereo) [Example 7, trans-5-(4-bromophenyl)-1-(2,4-dichlorophenyl)-N-(indolin-1-yl)-4-methyl-4,5-dihydro-1H-pyrazole-3-carboxamide]
Antagonism (%) [1]: 67 ± 3% | IC50 (CB1 receptor): 0.039 µM

C[C@H]1C(C(=O)NN2CCc3ccccc32)=NN(c2ccc(Cl)cc2Cl)[C@H]1c1ccc(F)cc1 (relative stereo) [Example 8, cis-1-(2,4-dichlorophenyl)-5-(4-fluorophenyl)-N-(indolin-1-yl)-4-methyl-4,5-dihydro-1H-pyrazole-3-carboxamide]
Antagonism (%) [1]: 48%

C[C@H]1C(C(=O)NN2CCc3ccccc32)=NN(c2ccc(Cl)cc2Cl)[C@H]1c1ccc(Cl)cc1 [Example 3, (4R,5R)-5-(4-chlorophenyl)-1-(2,4-dichlorophenyl)-N-(indolin-1-yl)-4-methyl-4,5-dihydro-1H-pyrazole-3-carboxamide]
Antagonism (%) [1]: 70% | IC50 (CB1 receptor): 0.1 µM

From patent US8106085B2, “Indoline-substituted pyrazoline derivatives, their preparation and use as medicaments” (Laboratorios Del Dr. Esteve, S.A., priority 2005, dated 2012)
